Key:
soybean [1] = experiment: Test Example 4: effect on crop by soil treatment (Table 19, symbol d); assay type: in vivo; conditions: amount of applied herbicide 214 g/ha
Outline: (§1)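 Step 1: sow seeds in sterilized diluvial soil, cover ~1.5 cm. Step 2: spray diluted emulsion onto soil surface at predetermined rate. Step 3: greenhouse, 25–30° C, three weeks. Step 4: grade effect on each plant by earlier criteria.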

corn [2] = experiment: Test Example 5: effect on crop by foliage application, plastic box (Table 20, symbol c); assay type: in vivo; conditions: 214 g/ha, three weeks after application
Outline: (§2)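 Foliar spray test: emulsion formulation diluted in water to a set application rate, sprayed onto 14-day-old plants raised in diluvial soil at 25° C to 30° C under glass. Both herbicidal effect and crop effect rated visually three weeks later.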

beet [3] = experiment: Test Example 5: effect on crop by foliage application, plastic box (Table 20, symbol f); assay type: in vivo; conditions: 214 g/ha, three weeks after application
Outline: as §2

soybean [4] = experiment: Test Example 5: effect on crop by foliage application, plastic box (Table 20, symbol d); assay type: in vivo; conditions: 214 g/ha, three weeks after application
Outline: as §2

rapeseed [5] = experiment: Test Example 4: effect on crop by soil treatment (Table 19, symbol g); assay type: in vivo; conditions: amount of applied herbicide 214 g/ha
Outline: as §1

beet [6] = experiment: Test Example 4: effect on crop by soil treatment (Table 19, symbol f); assay type: in vivo; conditions: amount of applied herbicide 214 g/ha
Outline: as §1

wheat [7] = experiment: Test Example 5: effect on crop by foliage application, plastic box (Table 20, symbol e); assay type: in vivo; conditions: 214 g/ha, three weeks after application
Outline: as §2

directly sowed rice = experiment: Test Example 3: effect on crop by foliage application, Wagner pot (Table 18, symbol b); assay type: in vivo; conditions: 214 g/ha
Outline: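 Plants were sown in alluvial soil held under 0.1–0.5 cm standing water and grown 14 days in a greenhouse at 25–30 °C. An emulsifiable formulation, water-diluted to the set dose, was then sprayed onto the foliage, and effects were scored three weeks later using previously defined criteria.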

rapeseed [8] = experiment: Test Example 5: effect on crop by foliage application, plastic box (Table 20, symbol g); assay type: in vivo; conditions: 214 g/ha, three weeks after application
Outline: as §2

corn [9] = experiment: Test Example 4: effect on crop by soil treatment (Table 19, symbol c); assay type: in vivo; conditions: amount of applied herbicide 214 g/ha
Outline: as §1

wheat [10] = experiment: Test Example 4: effect on crop by soil treatment (Table 19, symbol e); assay type: in vivo; conditions: amount of applied herbicide 214 g/ha
Outline: as §1

false cleavers = experiment: Test Example 5: herbicidal effect by foliage application, plastic box (Table 20, symbol Q); assay type: in vivo, false cleavers (Galium spurium); conditions: foliage application, 214 g/ha, three weeks after application
Outline: as §2

transplanted rice = experiment: Test Example 1: effect on crop, application before weed generation under submerged conditions (Table 16, symbol a); assay type: in vivo; conditions: amount of applied herbicide 214 g/ha
From the text: [Test Example 1] Herbicidal Activity Test by Application before Weed Generation under Submerged Conditions After alluvial soil was placed into 1/10000 are of Wagner pot, water was poured and mixed to form a submerged condition having a water depth of 4 cm. Seeds of late watergrass, Japanese bulrush, and oval-leafed pondweed were sowed in a mixed manner in the aforementioned pot, and then 2.5 leaf stage rice plant seedlings were transplanted thereto. On the day of sowing seeds, the emulsion agent of the compound of the present invention prepared according to Formulation Example 2 was diluted with water so as to achieve a predetermined herbicide amount, and the diluted emulsion agent was applied to the surface of the water. The pot was placed in a greenhouse at 25° C. to 30° C. for growth of the plants. Three weeks after the herbicide application, the effect of the herbicide on each plant was evaluated according to the following criteria. Evaluation Criteria 5: Herbicidal rate of 90% or more (almost completely withered) 4: Herbicidal rate of 70% or more and less than 90% 3: Herbicidal rate of 40% or more and less than 70% 2: Herbicidal rate of 20% or more and less than 40% 1: Herbicidal rate of 5% or more and less than 20% 0: Herbicidal rate of 5% or less (almost no effect)

SMILES: COc1ccc2c(-c3c(O)c(C)nn(C)c3=O)c(-c3ccccc3OC)sc2c1 [Compound No. 3-065, 5-hydroxy-4-(6-methoxy-2-(2-methoxyphenyl)benzo[b]thiophen-3-yl)-2,6-dimethylpyridazin-3(2H)-one]
- d: soybean, effect on crop grade (soybean [1]): 0 (Herbicidal rate of 5% or less (almost no effect))
- c: corn, effect on crop grade (corn [2]): 0 (Herbicidal rate of 5% or less (almost no effect))
- f: beet, effect on crop grade (beet [3]): 5 (Herbicidal rate of 90% or more (almost completely withered))
- d: soybean, effect on crop grade (soybean [4]): 5 (Herbicidal rate of 90% or more (almost completely withered))
- g: rapeseed, effect on crop grade (rapeseed [5]): 5 (Herbicidal rate of 90% or more (almost completely withered))
- f: beet, effect on crop grade (beet [6]): 3 (Herbicidal rate of 40% or more and less than 70%)
- e: wheat, effect on crop grade (wheat [7]): 2 (Herbicidal rate of 20% or more and less than 40%)
- melting point: 243 to 244 °C
- effect on directly sowed rice (b) (directly sowed rice): 1 (Herbicidal rate of 5% or more and less than 20%)
- g: rapeseed, effect on crop grade (rapeseed [8]): 5 (Herbicidal rate of 90% or more (almost completely withered))
- c: corn, effect on crop grade (corn [9]): 0 (Herbicidal rate of 5% or less (almost no effect))
- e: wheat, effect on crop grade (wheat [10]): 0 (Herbicidal rate of 5% or less (almost no effect))
- Q: false cleavers, herbicidal effect grade (false cleavers): 5 (Herbicidal rate of 90% or more (almost completely withered))
- Effect on crop, a: transplanted rice (transplanted rice): 0 (Herbicidal rate of 5% or less (almost no effect))

Source: US20230085307A1, “PYRIDAZINONE COMPOUND AND HERBICIDE” (NISSAN CHEMICAL CORPORATION, priority 2019, published 2023)
